Each compound was assayed against T1, cloned human H3 receptors (Homo sapiens, UniProt Q9Y5N1) (assay: H3 Receptor Binding (Human)). Conditions: cloned human H3 receptors stably expressed in SK-N-MC cells; average of the results obtained.
T1 construct: expressed in transfected cells; host or cells: SK-N-MC cells
T1 sequence (Q9Y5N1 whole entry): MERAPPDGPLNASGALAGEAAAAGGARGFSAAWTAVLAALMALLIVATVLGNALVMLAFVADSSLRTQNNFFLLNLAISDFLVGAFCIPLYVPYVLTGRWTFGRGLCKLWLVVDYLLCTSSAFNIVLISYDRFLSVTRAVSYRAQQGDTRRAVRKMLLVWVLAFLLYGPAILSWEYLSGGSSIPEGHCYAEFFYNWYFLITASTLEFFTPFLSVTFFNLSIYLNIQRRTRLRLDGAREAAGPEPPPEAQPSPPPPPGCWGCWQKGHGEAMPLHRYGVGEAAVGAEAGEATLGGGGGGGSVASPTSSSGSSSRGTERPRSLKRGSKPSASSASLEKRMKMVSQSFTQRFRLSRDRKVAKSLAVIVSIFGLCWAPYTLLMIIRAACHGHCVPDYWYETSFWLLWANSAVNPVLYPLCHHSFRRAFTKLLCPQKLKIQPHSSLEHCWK
Protocol: Binding of compounds to the cloned human H3 receptors, stably expressed in SK-N-MC cells, was performed as described by Barbier, A. J. et al. (Br. J. Pharmacol. 2004, 143(5), 649-661). Data for compounds tested in this assay are presented in Table 1 as an average of the results obtained.
Compound `O=C(c1ccc2c(c1)CCN(C(=O)C1CCCCC1)C2)N1CC2CN(C3CCC3)CC2C1` (stereo not drawn) [Example 163, (5-Cyclobutyl-hexahydro-pyrrolo[3,4-c]pyrrol-2-yl)-(2-cyclohexanecarbonyl-1,2,3,4-tetrahydro-isoquinolin-6-yl)-methanone] has a Ki of 170 nM. With `O=C(c1ccc2c(c1)CCN(C(=O)c1cccc(Cl)c1)C2)N1CCN(C2CCC2)CC1` [Example 119, (3-Chloro-phenyl)-[6-(4-cyclobutyl-piperazine-1-carbonyl)-3,4-dihydro-1H-isoquinolin-2-yl]-methanone] the Ki was 11 nM. Compound `O=C(c1ccc2c(c1)CCN(C(=O)c1ccc(Cl)c(Cl)c1)C2)N1CCN(C2CCC2)CC1` [Example 114, (4-Cyclobutyl-piperazin-1-yl)-[2-(3,4-dichloro-benzoyl)-1,2,3,4-tetrahydro-isoquinolin-6-yl]-methanone] has a Ki of 13 nM. `O=C(c1ccc2c(c1)CCN(C(=O)C1CCCCC1)C2)N1CCC(N2CCOCC2)CC1` [Example 158, Cyclohexyl-[6-(4-morpholin-4-yl-piperidine-1-carbonyl)-3,4-dihydro-1H-isoquinolin-2-yl]-methanone] showed a Ki of 4090 nM. In the case of `N#Cc1ccc(C(=O)N2CCc3cc(C(=O)N4CCN5CCCCC5C4)ccc3C2)cc1` (stereo not drawn) [Example 95, 4-[6-(Octahydro-pyrido[1,2-a]pyrazine-2-carbonyl)-3,4-dihydro-1H-isoquinoline-2-carbonyl]-benzonitrile], the Ki is reported as 16 nM. For `COc1ccc(C(=O)N2CCc3cc(C(=O)N4CCC[C@H]4CN4CCCC4)ccc3C2)cc1` [Example 60, (S)-(4-Methoxy-phenyl)-[6-(2-pyrrolidin-1-ylmethyl-pyrrolidine-1-carbonyl)-3,4-dihydro-1H-isoquinolin-2-yl]-methanone], the Ki was 21 nM. Work on `O=C(c1ccc(F)cc1)N1CCc2cc(C(=O)N3CCC[C@H]3CN3CCCC3)ccc2C1` [Example 58, (S)-(4-Fluoro-phenyl)-[6-(2-pyrrolidin-1-ylmethyl-pyrrolidine-1-carbonyl)-3,4-dihydro-1H-isoquinolin-2-yl]-methanone] yielded a Ki of 17 nM. Work on `Cc1ccc(C(=O)N2CCc3cc(C(=O)N4CCN(C(C)C)CC4)ccc3C2)cc1` [Example 109, (4-Isopropyl-piperazin-1-yl)-[2-(4-methyl-benzoyl)-1,2,3,4-tetrahydro-isoquinolin-6-yl]-methanone] yielded a Ki of 37 nM. `COc1ccc(C(=O)N2CCc3cc(C(=O)N4CCN(C(C)C)CC4)ccc3C2)cc1` [Example 108, (4-Isopropyl-piperazin-1-yl)-[2-(4-methoxy-benzoyl)-1,2,3,4-tetrahydro-isoquinolin-6-yl]-methanone] showed a Ki of 28 nM. For `O=C(c1ccc2c(c1)CCN(C(=O)c1ccccc1F)C2)N1CCN(C2CCCCC2)CC1` [Example 72, (4-Cyclohexyl-piperazin-1-yl)-[2-(2-fluoro-benzoyl)-1,2,3,4-tetrahydro-isoquinolin-6-yl]-methanone], the Ki was 80 nM. In the case of `CC(C)(C)OC(=O)N1CCc2cc(C(=O)N3CCN(C4CCCC4)CC3)ccc2C1` [Example 2, 6-(4-Cyclopentyl-piperazine-1-carbonyl)-3,4-dihydro-1H-isoquinoline-2-carboxylic acid tert-butyl ester], the Ki is reported as 230 nM. `O=C(c1ccc2c(c1)CCN(C1CCC1)C2)N1CCCCC1` [Example 185, (2-Cyclobutyl-1,2,3,4-tetrahydro-isoquinolin-6-yl)-piperidin-1-yl-methanone] was tested, and the Ki was 2100 nM. With `N#Cc1cccc(C(=O)N2CCc3cc(C(=O)N4CCN(C5CCCCC5)CC4)ccc3C2)c1` [Example 80] the Ki was 70 nM. Compound `CC(C)N1CCN(C(=O)c2ccc3c(c2)CCN(C(=O)c2ccsc2)C3)CC1` [Example 106, (4-Isopropyl-piperazin-1-yl)-[2-(thiophene-3-carbonyl)-1,2,34-tetrahydro-isoquinolin-6-yl]-methanone] has a Ki of 17 nM. In the case of `O=C(c1ccc2c(c1)CCN(C(=O)C1CCCCC1)C2)N1CC2CCN(C3CCC3)C2C1` (stereo not drawn) [Example 165, (1-Cyclobutyl-hexahydro-pyrrolo[3,4-b]pyrrol-5-yl)-(2-cyclohexanecarbonyl-1,2,3,4-tetrahydro-isoquinolin-6-yl)-methanone], the Ki is reported as 300 nM. `O=C(c1ccc2c(c1)CCN(C1CCCC1)C2)N1CCCCC1` [Example 191, (2-Cyclopentyl-1,2,3,4-tetrahydro-isoquinolin-6-yl)-piperidin-1-yl-methanone] gave a Ki of 2200 nM. With `Cc1ccc(C(=O)N2CCc3cc(C(=O)N4CCN(C5CCC5)CC4)ccc3C2)cc1` [Example 113, (4-Cyclobutyl-piperazin-1-yl)-[2-(4-methyl-benzoyl)-1,2,3,4-tetrahydro-isoquinolin-6-yl]-methanone] the Ki was 22 nM. `Cc1ccc(C(=O)N2CCc3cc(C(=O)N4CCN5CCCCC5C4)ccc3C2)cc1` (stereo not drawn) [Example 97, [2-(4-Methyl-benzoyl)-1,2,3,4-tetrahydro-isoquinolin-6-yl]-(octahydro-pyrido[1,2-a]pyrazin-2-yl)-methanone] showed a Ki of 38 nM. For `CCCN1CCc2cc(C(=O)N3CCC(C(C)(C)O)CC3)ccc2C1` [Example 184, [4-(1-Hydroxy-1-methyl-ethyl)-piperidin-1-yl]-(2-Propyl-1,2,3,4-tetrahydro-isoquinolin-6-yl)-methanone], the Ki was 4200 nM. With `Cc1ccc(C(=O)N2CCc3cc(C(=O)N4CCC[C@H]4CN4CCCC4)ccc3C2)cc1` [Example 55, (S)-[6-(2-Pyrrolidin-1-ylmethyl-pyrrolidine-1-carbonyl)-3,4-dihydro-1H-isoquinolin-2-yl]-p-tolyl-methanone] the Ki was 22 nM. Compound `CCCN1CCc2cc(C(=O)N3CCOCC3)ccc2C1` [Example 180, Morpholin-4-yl-(2-propyl-1,2,3,4-tetrahydro-isoquinolin-6-yl)-methanone] has a Ki of 9000 nM. `CC(=O)N1CCc2cc(C(=O)N3CCN(C(C)C)CC3)ccc2C1` [Example 29, 1-[6-(4-Isopropyl-piperazine-1-carbonyl)-3,4-dihydro-1H-isoquinolin-2-yl]-ethanone] was tested, and the Ki was 80 nM. `O=C(c1ccc2c(c1)CCN(C(=O)c1ccccc1Cl)C2)N1CCN(C2CCCCC2)CC1` [Example 75, [2-(2-Chloro-benzoyl)-1,2,3,4-tetrahydro-isoquinolin-6-yl]-(4-cyclohexyl-piperazin-1-yl)-methanone] gave a Ki of 77 nM. `O=C(c1ccc2c(c1)CCN(C(=O)c1cccc(F)c1)C2)N1CCN(C2CCC2)CC1` [Example 62, (4-Cyclobutyl-piperazin-1-yl)-[2-(3-fluoro-benzoyl)-1,2,3,4-tetrahydro-isoquinolin-6-yl]-methanone] gave a Ki of 24 nM. Work on `O=C(c1ccc(Cl)cc1)N1CCc2cc(C(=O)N3CCN4CCCCC4C3)ccc2C1` (stereo not drawn) [Example 91, [2-(4-Chloro-benzoyl)-1,2,3,4-tetrahydro-isoquinolin-6-yl]-(octahydro-pyrido[1,2-a]pyrazin-2-yl)-methanone] yielded a Ki of 25 nM. Compound `O=C(c1ccc2c(c1)CCN(C(=O)c1ccccc1F)C2)N1CCN(C2CCCC2)CC1` [Example 66, (4-Cyclopentyl-piperazin-1-yl)-[2-(2-fluoro-benzoyl)-1,2,3,4-tetrahydro-isoquinolin-6-yl]-methanone] has a Ki of 43 nM. In the case of `O=C(c1ccc2c(c1)CCN(Cc1ccccc1)C2)N1CCOCC1` [Example 13, (2-Benzyl-1,2,3,4-tetrahydro-isoquinolin-6-yl)-morpholin-4-yl-methanone], the Ki is reported as > 10000 nM. In the case of `O=C(c1ccc2c(c1)CCN(C(=O)c1ccc(F)cc1)C2)N1CCN(C2CCCC2)CC1` [Example 67, (4-Cyclopentyl-piperazin-1-yl)-[2-(4-fluoro-benzoyl)-1,2,3,4-tetrahydro-isoquinolin-6-yl]-methanone], the Ki is reported as 53 nM. Work on `O=C(c1ccc2c(c1)CCNC2)N1CCOCC1` [Example 7, Morpholin-4-yl-(1,2,3,4-tetrahydro-isoquinolin-6-yl)-methanone] yielded a Ki of 4000 nM. For `CC(C)N1CCc2cc(C(=O)N3CCC(C(C)(C)O)CC3)ccc2C1` [Example 178, [4-(1-Hydroxy-1-methyl-ethyl)-piperidin-1-yl]-(2-isopropyl-1,2,3,4-tetrahydro-isoquinolin-6-yl)-methanone], the Ki was 3300 nM. `O=C(c1ccc2c(c1)CCN(C(=O)c1ccc(Cl)cc1)C2)N1CCN(C2CCC2)CC1` [Example 105, [2-(4-Chloro-benzoyl)-1,2,3,4-tetrahydro-isoquinolin-6-yl]-(4-cyclobutyl-piperazin-1-yl)-methanone] was tested, and the Ki was 16 nM. Compound `O=C(c1ccccc1)N1CCc2cc(C(=O)N3CCN4CCCCC4C3)ccc2C1` (stereo not drawn) [Example 99, (2-Benzoyl-1,2,3,4-tetrahydro-isoquinolin-6-yl)-(octahydro-pyrido[1,2-a]pyrazin-2-yl)-methanone] has a Ki of 20 nM. `CC(C)N1CCC(C(=O)N2CCc3cc(C(=O)N4CCOCC4)ccc3C2)CC1` [Example 149, [2-(1-Isopropyl-piperidine-4-carbonyl)-1,2,3,4-tetrahydro-isoquinolin-6-yl]-morpholin-4-yl-methanone] was tested, and the Ki was 109 nM.
